Values quoted from earlier work in patent US20230066413A1, “ST[…]” (priority 2021, published 2023).

Tested on: antibiotic-resistant bacteria
Settings: stated in background, no experiment described

O=c1c(O)c(-c2ccc(O)c(O)c2)oc2cc(O)cc(O)c12 [Quercetin]
bactericidal concentration: 5,000 parts per million
